Reference: patent US9890142B2, “PDE4 inhibitor” (Meiji Seika Pharma Co., Ltd., priority 2013, dated 2018)

System: PDE4
Test: Evaluation of PDE4 inhibition (scintillation proximity assay)
Type: biochemical
Conditions: inhibition rate relative to control, test compound at 1 μM
Protocol: Test Example 1 Evaluation of PDE4 Inhibition
The PDE4 inhibitory activity was measured by using scintillation proximity assay (SPA) as follows: one in which a sample compound dissolved in dimethyl sulfoxide was diluted 10-fold with a buffer solution for reaction containing 50 mM Tris-HCl, pH 7.5, 8.3 mM MgCl2, 1.7 mM EDTA and 0.3 mg/mL bovine serum albumin (BSA) was added at 10 μL/well to a 96-well assay plate. Further, PDE4 diluted 750-fold with a buffer solution for reaction was added at 50 μL/well, then [2,8-^3H]-Adenosine-3′,5′-cyclic phosphate triethylammonium salt diluted 1000-fold with a buffer solution for reaction was added at 40 μL/well, and the plate was left standing at room temperature for 120 minutes. Thereafter, a suspension of RNA binding YSi-SPA Beads containing 200 mM ZnSO4 was added at 50 μL/well, and the plate was left standing at room temperature for 15 minutes to adsorb the enzyme reaction product onto the Beads. Thereafter, the radioactivity was measured with a liquid scintillation counter for 96-well plates. When one supplemented with only a buffer solution for reaction without adding the enzyme preparation was used as a blank and one supplemented with the enzyme preparation but supplemented with only dimethyl sulfoxide instead of the sample solution was used as a control, the inhibition rate of the test compound relative to the control was calculated according to the following calculation expression: Inhibition rate (%)={1−(Numeric value from the addition of each sample−Blank value)/(Control value−Blank value)}×100

SMILES | PDE4 inhibitory activity (1 μM (%)) [%]
C[C@H]1CNCCN1c1nc2cc(Cl)c(C#N)c(-c3nccs3)c2o1 [Example 142, (S)-5-Chloro-6-cyano-2-(2-methylpiperazin-1-yl)-7-(thiazol-2-yl)benzoxazole] | 86
C[C@H]1CNCCN1c1nc2c(F)c(Cl)c(F)c(-c3ccccn3)c2o1 [Example 120, (S)-5-Chloro-4,6-difluoro-2-(2-methylpiperazin-1-yl)-7-(pyridin-2-yl)benzoxazole] | 41
C[C@H]1CNCCN1c1nc2cc(Cl)c(F)c(-c3ccccn3)c2o1 [Example 92, (S)-5-Chloro-6-fluoro-2-(2-methylpiperazin-1-yl)-7-(pyridin-2-yl)benzoxazole] | 71
COc1cccnc1-c1cc(Cl)cc2nc(N3CCNC[C@@H]3C)oc12 [Example 79, (S)-5-Chloro-7-(3-methoxypyridin-2-yl)-2-(2-methylpiperazin-1-yl)benzoxazole] | 53
C[C@H]1CNCCN1c1nc2cc(Cl)cc(Cc3ccccc3)c2o1 [Example 75, (S)-7-Benzyl-5-chloro-2-(2-methylpiperazin-1-yl)benzoxazole] | 45
COc1c(Cl)cc(-n2cccn2)c2oc(N3CCNC[C@@H]3C)nc12 [Example 156, (S)-5-Chloro-4-methoxy-2-(2-methylpiperazin-1-yl)-7-(1H-pyrazol-1-yl)benzoxazole] | 91
Cc1cc(-c2ccccn2)c2oc(N3CCNC[C@@H]3C)nc2c1 [Example 114, (S)-5-methyl-2-(2-methylpiperazin-1-yl)-7-(pyridin-2-yl)benzoxazole] | 77
C[C@H]1CNCCN1c1nc2cc(Cl)cc(N3CCCC3)c2o1 [Example 20, (S)-5-Chloro-2-(2-methylpiperazin-1-yl)-7-(pyrrolidin-1-yl)benzoxazole] | 71
CC(C)c1cc(Cl)cc2nc(N3CCNC[C@@H]3C)oc12 [Example 1, (S)-5-Chloro-7-isopropyl-2-(2-methylpiperazin-1-yl)benzoxazole] | 87
C[C@H]1CNCCN1c1nc2cc(Cl)cc(-c3ccc(F)cc3)c2o1 [Example 81, (S)-5-Chloro-7-(4-fluorophenyl)-2-(2-methylpiperazin-1-yl)benzoxazole] | 68
C[C@H]1CNCCN1c1nc2cc(C(F)(F)F)cc(-c3ncco3)c2o1 [Example 127, (S)-2-(2-Methylpiperazin-1-yl)-7-(oxazol-2-yl)-5-(trifluoromethyl)benzoxazole] | 90
C[C@H]1CNCCN1c1nc2cc(Cl)cc(-c3cscn3)c2o1 [Example 37, (S)-5-Chloro-2-(2-methylpiperazin-1-yl)-7-(thiazol-4-yl)benzoxazole] | 98
Cc1c(Cl)cc(-c2ccccn2)c2oc(N3CCNC[C@@H]3C)nc12 [Example 131, (S)-5-Chloro-4-methyl-2-(2-methylpiperazin-1-yl)-7-(pyridin-2-yl)benzoxazole] | 90
C[C@@H]1CNCCN1c1nc2c(C(F)(F)F)c(Cl)cc(-c3ccccn3)c2o1 [Example 178, (R)-5-Chloro-2-(2-methylpiperazin-1-yl)-7-(pyridin-2-yl)-4-(trifluoromethyl)benzoxazole] | 33
Cc1cc(Cl)cc2nc(N3[C@H](C)CNC[C@@H]3C)oc12 [Example 4, meso-5-Chloro-2-(2,6-cis-dimethylpiperazin-1-yl)-7-methylbenzoxazole] | 18
C[C@H]1CNCCN1c1nc2cc(Cl)cc(-c3cc(Cl)ccn3)c2o1 [Example 59, (S)-5-Chloro-7-(4-chloropyridin-2-yl)-2-(2-methylpiperazin-1-yl)benzoxazole] | 71
C[C@H]1CNCCN1c1nc2cc(Cl)cc(-n3cncn3)c2o1 [Example 46, (S)-5-Chloro-2-(2-methylpiperazin-1-yl)-7-(1H-1,2,4-triazol-1-yl)benzoxazole] | 29
COc1c(Cl)cc(-c2nccs2)c2oc(N3CCNC[C@@H]3C)nc12 [Example 155, (S)-5-Chloro-4-methoxy-2-(2-methylpiperazin-1-yl)-7-(thiazol-2-yl)benzoxazole] | 96
C[C@H]1CNCCN1c1nc2c(OC(F)(F)F)c(F)cc(-c3nccs3)c2o1 [Example 135, (S)-5-Fluoro-2-(2-methylpiperazin-1-yl)-7-(thiazol-2-yl)-4-(trifluoromethoxy)benzoxazole] | 99

SMILES | PDE4 inhibitory activity (1 μM (%)) [%]
C[C@H]1CNCCN1c1nc2cc(Cl)cc(C3CCCO3)c2o1 (mixture of isomers) [Example 80, 5-Chloro-2-((S)-2-methylpiperazin-1-yl)-7-(tetrahydrofuran-2-yl)benzoxazole] | 42
C[C@H]1CNCCN1c1nc2cc(C#N)cc(-c3ncco3)c2o1 [Example 113, (S)-5-Cyano-2-(2-methylpiperazin-1-yl)-7-(oxazol-2-yl)benzoxazole] | 71
C[C@H]1CNCCN1c1nc2cc(F)cc(-c3ccccn3)c2o1 [Example 102, (S)-5-Fluoro-2-(2-methylpiperazin-1-yl)-7-(pyridin-2-yl)benzoxazole] | 85
COc1c(Cl)cc2nc(N3CCNC[C@@H]3C)oc2c1-c1nccs1 [Example 141, (S)-5-Chloro-6-methoxy-2-(2-methylpiperazin-1-yl)-7-(thiazol-2-yl)benzoxazole] | 77
C[C@H]1CNCCN1c1nc2cc(F)cc(-c3ncco3)c2o1 [Example 104, (S)-5-Fluoro-2-(2-methylpiperazin-1-yl)-7-(oxazol-2-yl)benzoxazole] | 88
FC(F)(F)Oc1c(Cl)cc(-c2nccs2)c2oc(N3CCNCC3)nc12 [Example 175, 5-Chloro-2-(piperazin-1-yl)-7-(thiazol-2-yl)-4-(trifluoromethoxy)benzoxazole] | 96
C[C@H]1CNCCN1c1nc2cc(Cl)cc(C(=O)NO)c2o1 [Example 98, (S)-5-Chloro-7-hydroxyaminocarbonyl-2-(2-methylpiperazin-1-yl)benzoxazole] | <10
Cc1cc(-c2ncco2)c2oc(N3CCNC[C@@H]3C)nc2c1 [Example 116, (S)-5-methyl-2-(2-methylpiperazin-1-yl)-7-(oxazol-2-yl)benzoxazole] | 80
Cc1cc2oc(N3CCNC[C@@H]3C)nc2cc1Cl [Example 170, (S)-5-Chloro-6-methyl-2-(2-methylpiperazin-1-yl)benzoxazole] | 15
C[C@H]1CNCCN1c1nc2cc(Cl)c(Br)c(-c3ccccn3)c2o1 [Example 152, (S)-6-Bromo-5-chloro-2-(2-methylpiperazin-1-yl)-7-(pyridin-2-yl)benzoxazole] | 68
C[C@@H]1CNCCN1c1nc2c(OC(F)(F)F)c(Cl)cc(-c3ccccn3)c2o1 [Example 157, (R)-5-Chloro-2-(2-methylpiperazin-1-yl)-7-(pyridin-2-yl)-4-(trifluoromethoxy)benzoxazole] | 41
Cc1cc(N2CCCC2)cc2nc(N3CCNC[C@@H]3C)oc12 [Example 172, (S)-7-Methyl-5-(pyrrolidin-1-yl)-2-(2-methylpiperazin-1-yl)benzoxazole] | <10
C[C@H]1CNCCN1c1nc2c(Br)cc(Cl)cc2o1 [Example 163, (S)-4-Bromo-6-chloro-2-(2-methylpiperazin-1-yl)benzoxazole] | 52
C[C@H]1CNCCN1c1nc2c(C(F)(F)F)c(Cl)cc(-c3nccs3)c2o1 [Example 84, (S)-5-Chloro-2-(2-methylpiperazin-1-yl)-7-(thiazol-2-yl)-4-(trifluoromethyl)benzoxazole] | 95
C[C@H]1CNCCN1c1nc2cc(Cl)cc(-n3ccnc3)c2o1 [Example 36, (S)-5-Chloro-7-(1H-imidazol-1-yl)-2-(2-methylpiperazin-1-yl)benzoxazole] | 39
COCc1cc(Cl)cc2nc(N3CCNC[C@@H]3C)oc12 [Example 107, (S)-5-Chloro-7-(methoxymethyl)-2-(2-methylpiperazin-1-yl)benzoxazole] | 66
C[C@H]1CNCCN1c1nc2cc(Cl)c(F)c(-c3nccs3)c2o1 [Example 93, (S)-5-Chloro-6-fluoro-2-(2-methylpiperazin-1-yl)-7-(thiazol-2-yl)benzoxazole] | 95
C[C@H]1CNCCN1c1nc2c(C3CC3)c(Cl)cc(-c3ccccn3)c2o1 [Example 149, (S)-5-Chloro-4-cyclopropyl-2-(2-methylpiperazin-1-yl)-7-(pyridin-2-yl)benzoxazole] | 91
